Experimental data from article PMC4875962 (Clinical Pharmacokinetics, 2015).
Entries after “also recorded” stand apart in the source; their conditions may differ. Read-outs that look alike come from different tables or passages of the source. Marks after values point to notes of the source that are not given here.

Key:
[1] = tested on: ex vivo thrombus formation; conditions: single 60 mg dose, healthy subjects; cited from earlier work
[2] = tested on: thrombin generation and platelet activation; conditions: postdose; cited from earlier work
[3] = Drug-drug interaction studies: effect on edoxaban pharmacokinetics; conditions: coadministration of high-dose aspirin (325 mg); data on file
[4] = 60 mg of [14C]-edoxaban, cited from earlier work
OAT1 [5] = conditions: cited from earlier work
OAT3 [6] = conditions: read-out: IC50, inhibitory effect on OAT3; cited from earlier work
[7] = cited from earlier work
[8] = single dose, vs matched healthy controls; cited from earlier work
OCT2 [9] = conditions: read-out: IC50, inhibitory effect on OCT2; cited from earlier work
OATP1B1 [10] = conditions: read-out: IC50, inhibitory effect on OATP1B1; cited from earlier work
OATP1B3 = conditions: read-out: IC50, inhibitory effect on OATP1B3; cited from earlier work
OCT1 = conditions: read-out: IC50, inhibitory effect on OCT1; cited from earlier work
[11] = tested on: PT, INR, aPTT, intrinsic FX activity, thrombin generation, anti-FXa; conditions: cited from earlier work
[12] = pH range of 3–7, decreases with increasing pH; cited from earlier work
CYPs = conditions: read-out: IC50, inhibitory effect on CYPs; cited from earlier work
[13] = cited from earlier work; for dose–exposure relationship: oral doses 10–180 mg
[14] = cited from earlier work; remark: listed apart in the source
[15] = cited from earlier work; remark: listed apart in the source
OCT2 [16] = conditions: cited from earlier work
[17] = cited from earlier work; remark: listed apart in the source
OAT1 [18] = conditions: read-out: IC50, inhibitory effect on OAT1; cited from earlier work
P-glycoprotein (P-gp) = conditions: Caco-2 cell monolayers; cited from earlier work
OATP1B1 [19] = conditions: cited from earlier work
CYP1A2 = test: Induction of gene expression in human hepatocytes; conditions: data on file
P-gp = conditions: read-out: IC50, inhibitory effect on P-gp; cited from earlier work
[20] = 60 mg twice daily, elderly healthy subjects; cited from earlier work
OAT3 [21] = conditions: cited from earlier work
Caco-2 cells = conditions: cited from earlier work
[22] = tested on: plasma anti-FXa activity, PT, aPTT; conditions: cited from earlier work
[23] = intravenous 30 mg, healthy subjects
[24] = single oral dose of edoxaban 60 mg, healthy subjects, mean ± SD
[25] = 60 mg daily for 4 days, day 1 and day 4

- reduction of renal clearance of edoxaban [3]: 17%
- induction of gene expression of CYP1A2 (CYP1A2): do not induce
SMILES: CN1CCc2nc(C(=O)N[C@@H]3C[C@@H](C(=O)N(C)C)CC[C@@H]3NC(=O)C(=O)Nc3ccc(Cl)cn3)sc2C1 [edoxaban]
- ex vivo thrombus formation under high and low shear rates [1]: markedly reduced
- time of nadir for shed blood F1+2 and β-thromboglobulin [2]: 1.5 h
- total radioactive dose detected in faeces ([4]; healthy subjects): 62%
- total radioactive dose detected in urine ([4]; healthy subjects): 35%
- unchanged edoxaban in faeces, share of total administered radioactive dose [4]: 49%
- unchanged edoxaban in urine, share of total administered radioactive dose [4]: 24%
- substrate of OAT1 (OAT1 [5]): is not a substrate
- IC50 (OAT3 [6]): ≥ 100 µM
- pharmacokinetic parameters vs continual treatment with edoxaban ([7]; 60 mg on day 4 after rivaroxaban 20 mg once daily for 3 days): similar
- pharmacokinetic parameters vs 4 days of continual edoxaban ([7]; 60 mg single dose after dabigatran 150 mg twice daily for 3 days): similar
- anticoagulant effects (anti-FXa, PT, aPTT, ETP) vs 4 days of continual edoxaban ([7]; after switching from rivaroxaban): similar
- PT and anti-FXa activities, switched from dabigatran vs continuous edoxaban [7]: not different
- aPTT and ETP after switching from dabigatran [7]: carryover effect
- effect of warfarin on the pharmacokinetics of edoxaban ([7]; switching 24 h after cessation of warfarin): no effect
- effect of mild or moderate hepatic impairment on peak or total exposure [8]: did not significantly impact
- IC50 (OCT2 [9]): ≥ 100 µM
- IC50 (OATP1B1 [10]): ≥ 50 µM
- IC50 (OATP1B3): ≥ 50 µM
- IC50 (OCT1): ≥ 100 µM
- effect on PT, INR, aPTT or intrinsic FX activity ([11]; coadministration of low-dose aspirin (100 mg)): did not significantly affect
- effect on anti-FXa when both drugs coadministered ([11]; edoxaban 60 mg and subcutaneous enoxaparin 1 mg/kg): additive
- solubility [12]: pH dependent
- IC50 (CYPs): ≥ 100 µM
- effect of age, sex and race on edoxaban pharmacokinetics ([13]; after renal function is taken into account): do not affect
- contribution of any individual metabolic pathway to total clearance [13]: ≤ 10%
- inter- and intra-subject variability in clearance and volume of distribution [13]: < 30%
- metabolism by CYP3A4 (CYP3A4/5) (share of clearance) [13]: < 10%
- renal clearance as share of total clearance [13]: approximately 50%
- Renal clearance ([13]; healthy subjects): about 10.7 ± 3.00 L/h
- metabolism by CES1 (share of clearance) ([13]; human-specific metabolite): < 10%
- CL total body clearance [13, 23]: approximately 22 L/h
- V ss steady-state volume of distribution [13, 23]: approximately 107 L
- V z volume of distribution based on the terminal phase [13, 23]: 205 ± 64.8 L
- CL total body clearance ([13]; intravenous 30 mg, healthy subjects, listed as Edoxaban): 21.8 ± 3.03 L/h
- dose–exposure relationship ([13]; healthy subjects): approximately dose proportional; also recorded: slightly less-than-dose-proportional
- dose–exposure relationship ([13]; healthy subjects, listed as Edoxaban): generally linear and dose-proportional
- terminal elimination half-life ([13]; oral, healthy subjects): 10 to 14 h
- CLR (oral) ([13]; single oral dose of edoxaban 60 mg, healthy subjects, N = 32): 9.95 ± 2.32^a L/h
- AUC∞ (oral) [13, 24]: 1766 ± 435.3 ng·h/mL
- C max (oral) [13, 24]: 256 ± 87.7 ng/mL
- t ½ (oral) [13, 24]: 11.5 ± 5.63 h
- t max (oral) ([13]; single oral dose of edoxaban 60 mg, healthy subjects, median [minimum–maximum]): 1.02 [0.500–3.00] h
- change in QTcI value, one subject ([14]; 90 mg dose group, 10 h postdose): 32 ms
- upper bounds of the 95 % one-sided CIs for placebo-corrected QTcI change from time-matched baseline ([14]; 90 and 180 mg, any time point): ≤ 4 ms
- effect on cardiac repolarization ([14]; 90 and 180 mg): did not have a threshold pharmacological effect
- changes in QTcI, all except one subject ([14]; all time points): below 30 ms
- absolute value of QTcI ([14]; any subject, 90 and 180 mg): ≤ 450 ms
- fraction absorbed in the colon [15]: approximately 13%
- substrate of OCT2 (OCT2 [16]): is not a substrate
- effect on prolongation of bleeding time ([17]; coadministration of edoxaban and low-dose (100 mg) or high-dose aspirin (325 mg)): additive effect
- increase in bleeding time vs naproxen alone ([17]; coadministration of edoxaban with naproxen, 90 % CI 98.1–151.0): 22%
- IC50 (OAT1 [18]): ≥ 100 µM
- substrate of the efflux transporter P-gp (P-glycoprotein (P-gp)): is a substrate
- substrate of OATP1B1 (OATP1B1 [19]): is not a substrate
- IC50 (P-gp): ≥ 50 µM
- rebound effect following cessation of dosing [20]: no evidence of a rebound effect
- substrate of OAT3 (OAT3 [21]): is not a substrate
- permeability in Caco-2 cells (Caco-2 cells): poor
- time to peak elevation of PT and aPTT [22, 25]: ≤ 2 h
- time to return of PT and aPTT to near-baseline levels [22, 25]: ≤ 24 h
- time to peak effects on anticoagulation markers (anti-FXa, PT, aPTT) ([22]; oral administration): 1 to 2 h
- time to maximum effect on plasma anti-FXa activity ([22]; single dose 10–150 mg, healthy subjects): 1 to 2 h
